Measurements reported in US7923445B2, “Methods for treatment of diseases related to activated lymphocytes” (Immune Control, Inc., priority 2006, dated 2011).

Tests used:
[1] = system: TNF-α; test: LPS-mediated cytokine production model, serum TNF-α; format: in vivo, CD1:ICR mice; conditions: for TNFα inhibition, IV versus IP administration: pre-dose time course, 10 mg/kg; for TNFα inhibition in dose-response study: IP, up to a dose of 5 mg/kg, pre-dose 1 hr
Source text: Bolus injection of lethal or sub-lethal doses of lipopolysaccharide (LPS; the major component of bacterial cell walls) results in a rapid and transient rise in serum cytokine levels (e.g. TNF-α) in mammals. This animal model was originally developed to mirror certain aspects of septic shock in humans; however, there is poor correlation between efficacy in LPS-rodent models and clinical efficacy. However, this model may be an effective first-line general inflammation model and could be useful in determining the anti-inflammatory potential of test compounds. A variety of clinically approved anti-inflammatory compounds, including glucocorticoids, NSAIDS and COX-2 inhibitors are extremely effective in this model. Compounds ICI-685 and ICI-735 were tested for their ability to inhibit LPS-stimulated TNF-α and IL-1β production.
Both ICI-685 and ICI-735 were formulated in water. For the time course study, both drugs were formulated at a concentration of 1 mg/ml and dosed 10 ml/kg to produce a dose of 10 mg/kg. For the dose-response study, drug was formulated at concentrations of 0.05, 0.2 and 0.5 mg/ml and dosed at a volume of 10 ml/kg to produce doses of 0.5, 2 and 5 mg/kg, respectively. Animals were dosed IV or IP.
CD1:ICR mice were obtained from Harlan (Indianapolis, Ind.) at 6 weeks of age. Animals were housed 5 per cage, kept on a 12 hr light dark cycle and fed food and water ad libitum. Animals were tested at 8-10 weeks of age.
Lipopolysaccharide (heat killed E. coli 0127:B5; Sigma Aldrich) was prepared in distilled water at a concentration of 0.025 mg/ml. LPS was dosed at a volume of 10 ml/kg (IP) to produce a final dose of 0.25 mg/kg (approximately 7.5 μg/mouse). Drugs were dosed prior to LPS administration as indicated elsewhere herein. Blood was collected by retro-orbital eye bleed 90 minutes after LPS administration. Serum was prepared from blood and TNF-α and IL-1β levels were measured by using the OPT-EIA mouse TNF-α and IL-1β ELISA kits (BD Biosciences) as per directions of the manufacturer.
The first study was designed to determine the optimal route of administration and the optimal pre-treatment time. Two pre-dose time course studies were conducted. The first (Study 1A) was conducted with 3 pre-dose time points (2, 6 and 18 hrs). The second was conducted at 0, 1 and 2 hr predose time points. For both studies, drug was dosed IP or IV.
Using data from the first study, a second study was conducted that was designed to measure dose-response activity of each compound. Compounds were tested at doses of 0, 2.0 and 5 mg/kg using the route and pre-treatment time that produced the best activity. […]
Using data from the first study, a second study was conducted that was designed to measure dose-response activity of each compound. Compounds were tested at doses of 0.5, 2.0 and 5 mg/kg using the route and pre-treatment time that produced the best activity.

[2] = system: Aspergillus fumigatus-based mouse asthma model; test: Aspergillus fumigatus-based mouse asthma model, lung resistance; format: in vivo; conditions: intraperitoneally at a dose of 20 mg/ml
Description: Compounds of the invention were also tested for efficiacy in an asthma model.
A cohort of mice were administered intraperitoneal injections of Aspergillus fumigatus on days 0, 14, 26, 27, and 28. Lung resistance was tested on day 29 immediately following a tracheotomy/methacholine procedure. Animals receiving dexamethasone were administered dexamethasone on days 26, 27 and 28. Animals receiving a compound of the invention were administered the compound just hours before the lung resistance test. As a control, all test compounds, as well as dexamethasone, were also administered to mice in the absence of an A. fumigatus insult.

[3] = system: mice sensitized with collagen injections; test: Clinical arthritis score in mice sensitized with collagen injections; format: in vivo
Description: FIGS. 26-28 illustrate the effect of various compounds of the invention on the clinical arthritis score of mice treated with various compounds of the invention.
Additional testing of the effectiveness of compounds ICI-685, ICI-735 and ICI-847 at higher and lower concentrations were conducted, as illustrated in FIG. 29.

Row | Compound | TNFα inhibition, IV versus IP administration [1] | decreasing lung resistance, compared with dexamethasone [2] | TNFα inhibition in dose-response study [1] | clinical arthritis score, compared with dexamethasone ([3]; 30 mg/kg) | clinical arthritis score, compared with dexamethasone ([3]; orally at 10 mg/kg daily, for about 21 days)
1 | CN(C)S(=O)(=O)c1ccc2c(c1)N(CCCN1CCN(CCN)CC1)c1ccccc1S2 [ICI-715] | IV administration of ICI-715 produced slightly better inhibition than IV administration | – | – | – | –
2 | NCC(=O)NCCN1CCN(CCCN2c3ccccc3Sc3ccc(C(F)(F)F)cc32)CC1 [ICI-735] | – | at least as effective as dexamethasone | – | – | –
3 | FC(F)(F)c1ccc2c(c1)N(CCCC1CCNCC1)c1ccccc1S2 [ICI-824] | IP administration produced slightly better inhibition than IV administration | – | ineffective | – | –
4 | NCCCN1CCC(CCCN2c3ccccc3Sc3ccc(C(F)(F)F)cc32)CC1 [ICI-847] | – | at least as effective as dexamethasone | – | as effective for the length of the study as is dexamethasone | as effective as dexamethasone
5 | NCCN1CCN(CCCCN2c3ccccc3Sc3ccc(C(F)(F)F)cc32)CC1 [ICI-953] | IP administration produced slightly better inhibition than IV administration | – | ineffective | – | –
6 | NCC(=O)NCCN1CCN(CCCCN2c3ccccc3Sc3ccc(C(F)(F)F)cc32)CC1 [ICI-954] | IP administration produced slightly better inhibition than IV administration | – | ineffective | – | –
